How the values were obtained:
[1] = test system: procaspase-3, cleaved caspase-3, procaspase-8, cleaved caspase-8, PARP; assay: Apoptosis-related molecular markers by Western Blot; format: cell-based, human; details: A549 and SW620 cells, 24 hr or 48 hr; interferons 10 mcg/ml
Description: Thereafter, apoptosis-related molecular markers were monitored by Western Blot. The primary antibodies used were mouse monoclonal anti-beta-tubulin (1:2000, Cat #: CW0098A) and mouse monoclonal anti-GAPDH (1:2000, Cat #: CW0100A) (Kangwei Biotechnology, China); mouse monoclonal anti-PARP (1:1000, Cat #: sc-2007, Santa Cruz Biotechnology, Inc.); rabbit monoclonal anti-procaspase 3 (1:1000, Cat #: 9665), and rabbit polyclonal anti-cleaved caspase 3 (1:1000, Cat #: 9661) (Cell Signaling Technology, USA); goat polyclonal anti-procaspase 8 (1:1000, Cat #: sc-6136, Santa Cruz Biotechnology, Inc); rabbit monoclonal anti-cleaved caspase 8 (1:1000, Cat #: 9496) (Cell Signaling Technology, USA).

[2] = test system: human lung cancer SPC-A4 xenografts; details: 5 mg/kg i.v. days 1 and 6
Experimental: Under sterile conditions, well-grown tumors were cut into 1.5 mm^3 fragments and one such fragment was injected by trocar needle into the right flank of each study animal. […] Individual tumor size (length and width) was measured twice per week with microcalipers. Tumor volume (V) was calculated using the formula: V=(length×width^2)/2. Individual relative tumor volume (RTV) was calculated using the formula: RTV=Vt/V0, where Vt is the tumor volume on the day of measurement and V0 is the tumor volume on the day of first treatment. Therapeutic effect of the test article or control article was expressed in terms of T/C (%), using the formula: T/C (%)=(mean RTV of the treated group/mean RTV of the control group)×100%; and in terms of % Inhibition, using the formula: % Inhibition=100%−T/C %.
The 1.5 mm^3 fragments were then used for s.c. implantation into the test animals. The body weight of the animals averaged 22±2 g at dose initiation.

[3] = test system: Human Colon Cancer HT-29 Xenografts; assay: rSIFN-co on human colon cancer HT-29 xenografts in nude mice; format: in vivo; details: 5 mg/kg i.v. days 1 and 10
[4] = test system: human hepatoma SMMC-7721 xenografts; assay: rSIFN-co on human hepatoma SMMC-7721 xenografts in nude mice; details: 5 mg/kg i.v.
Experimental: The test article was used without dilution. It was stored at 4° C. until thawed for injection.
The animals used were 4-6 weeks old male BALB/cA nu/nu mice, weighing about 23±2 g, obtained from the Shanghai Institute of Materia Medica (Shanghai, P.R. China). […] Animals were housed 6 to a cage. They were ear-marked with ear hole punch identification. The room temperature was maintained at 25° C.±+1° C. Lighting was set at 12 hr on and 12 hr off. Food was provided ad libitum. City tap water, filtered with a 5 micrometer (μm) filter, was provided to the animals ad libitum via water bottles.
The test article was administered in a volume of 0.05 ml-0.15 ml per mouse per treatment, depending on the group to which the animal was assigned. […] Normal saline was injected in a volume of 0.15 ml per mouse, which was used as vehicle control.
Animals were assigned to treatment groups randomly. Initially, all animals were placed in one large animal cage. For assignment to the study, they were later separately housed, with 6 animals per cage per treatment group. Groups 1 and 2 are Control groups in which the animals were each administered the vehicle every other day after the first treatment. […] Tumor growth was monitored by measuring the length and width of each tumor twice a week during the course of the study. Each animal was also weighed twice a week during the course of the study.
Before commencement of this study, the xenografts were passaged twice in nude mice. Under sterile conditions, well-grown tumors were cut into 1.5 mm^3 fragments and one such fragment was injected by trocar needle into the right flank of each study animal. […] Individual tumor size (length and width) was measured twice per week with microcalipers. Tumor volume (V) was calculated using the formula: V=(length×width^2)/2. Individual relative tumor volume (RTV) was calculated using the formula: RTV=Vt/V0, where Vt is the tumor volume on the day of measurement and V0 is the tumor volume on the day of first treatment. Therapeutic effect of the test article or control article was expressed in terms of T/C (%), using the formula: T/C (%)=(mean RTV of the treated group/mean RTV of the control group)×100%; and in terms of % Inhibition, using the formula: % Inhibition=100%−T/C %.

[5] = test system: Human Cervical Cancer Hela Xenografts; assay: rSIFN-co on human cervical cancer Hela xenografts in nude mice; format: in vivo; details: 5 mg/kg i.v. days 1 and 13
Experimental: Then 1.5 mm^3 fragments were prepared for s.c. implantation into the animals.

O=c1[nH]cc(F)c(=O)[nH]1 [5FU, reference compound]
level of cleaved caspase-3 and cleaved caspase-8 [1]: enhanced level
level of procaspase-3, procaspase-8 and PARP [1]: significant reduction

CO[C@@]12[C@H](COC(N)=O)C3=C(C(=O)C(C)=C(N)C3=O)N1C[C@@H]1N[C@@H]12 [MMC, Mitomycin C, reference compound]
TV(mm^3, mean ± SD) (D 0) ([2]; day 0): 166 ± 42 mm^3
% Inhibition ([2]; day 21): 72.87%
RTV (mean ± SD) ([2]; day 21): 11.54 ± 4.37
T/C (%) ([2]; day 21): 27.13%
TV(mm^3, mean ± SD) (D 21) ([2]; day 21): 1831 ± 540 mm^3
TV(mm^3, mean ± SD) (D 0) ([3]; day 0): 132 ± 22 mm^3
% Inhibition ([3]; day 28): 62.9%
T/C (%) ([3]; day 28): 37.10%
TV(mm^3, mean ± SD) (D 28) ([3]; day 28): 395 ± 95 mm^3
TV(mm^3, mean ± SD) (D 0) ([4]; day 0): 125 ± 35 mm^3
mean body weight ([4]; day 0): 23.9 gram
% Inhibition ([4]; day 21): 47.18%
TV(mm^3, mean ± SD) (D 21) ([4]; day 21): 621 ± 247 mm^3
mean body weight ([4]; day 21): 25.4 gram
TV(mm^3, mean ± SD) (D 0) ([5]; day 0): 130 ± 28 mm^3
% Inhibition ([5]; day 28): 60.08%
T/C (%) ([5]; day 28): 39.92%
TV(mm^3, mean ± SD) (D 28) ([5]; day 28): 676 ± 358 mm^3
